# Measured values published in patent US20260207578A1, “COMPOUND BASED ON SULFUR/OXYGEN SUBSTITUTED GLUTARIMIDE-BASED ISOINDOLINONE SKELETON AND USE THEREOF” (Gluetacs Therapeutics (Shanghai) Co., LTD., priority 2022, published 2026).
# Tests used:
# CK1α = target: T1, CK1α (Homo sapiens, UniProt P48729+Q96SW2); assay: Western-blot assay, substrate protein in hPBMCs; format: cell-based; details: hPBMC cells, 24 hours, tested at 50 nM and 500 nM, table does not say which
# T1 construct: endogenous in cells; host or cells: human PBMCs (Milecell Biotechnologies)
# T1 sequence (P48729 whole entry): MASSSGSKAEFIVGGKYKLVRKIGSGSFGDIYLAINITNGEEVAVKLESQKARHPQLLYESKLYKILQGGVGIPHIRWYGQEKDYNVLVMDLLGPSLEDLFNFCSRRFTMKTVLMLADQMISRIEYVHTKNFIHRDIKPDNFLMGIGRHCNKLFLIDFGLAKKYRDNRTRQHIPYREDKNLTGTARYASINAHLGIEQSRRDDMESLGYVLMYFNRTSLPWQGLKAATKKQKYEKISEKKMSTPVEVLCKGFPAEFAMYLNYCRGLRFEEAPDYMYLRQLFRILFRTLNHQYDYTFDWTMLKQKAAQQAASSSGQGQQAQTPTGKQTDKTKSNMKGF
# T1 sequence (Q96SW2 whole entry): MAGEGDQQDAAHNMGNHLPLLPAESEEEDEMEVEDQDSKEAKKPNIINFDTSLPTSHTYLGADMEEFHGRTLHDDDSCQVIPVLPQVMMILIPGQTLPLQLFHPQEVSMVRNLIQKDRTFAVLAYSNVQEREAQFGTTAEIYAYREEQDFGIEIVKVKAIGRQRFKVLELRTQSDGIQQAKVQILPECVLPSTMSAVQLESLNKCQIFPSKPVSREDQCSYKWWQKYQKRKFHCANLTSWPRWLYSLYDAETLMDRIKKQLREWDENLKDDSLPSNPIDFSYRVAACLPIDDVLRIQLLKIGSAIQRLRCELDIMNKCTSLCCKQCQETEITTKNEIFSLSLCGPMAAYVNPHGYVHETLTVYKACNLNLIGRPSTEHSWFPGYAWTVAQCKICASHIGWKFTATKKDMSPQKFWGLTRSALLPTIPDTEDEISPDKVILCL
# T1 sequence (Q16531 whole entry partner): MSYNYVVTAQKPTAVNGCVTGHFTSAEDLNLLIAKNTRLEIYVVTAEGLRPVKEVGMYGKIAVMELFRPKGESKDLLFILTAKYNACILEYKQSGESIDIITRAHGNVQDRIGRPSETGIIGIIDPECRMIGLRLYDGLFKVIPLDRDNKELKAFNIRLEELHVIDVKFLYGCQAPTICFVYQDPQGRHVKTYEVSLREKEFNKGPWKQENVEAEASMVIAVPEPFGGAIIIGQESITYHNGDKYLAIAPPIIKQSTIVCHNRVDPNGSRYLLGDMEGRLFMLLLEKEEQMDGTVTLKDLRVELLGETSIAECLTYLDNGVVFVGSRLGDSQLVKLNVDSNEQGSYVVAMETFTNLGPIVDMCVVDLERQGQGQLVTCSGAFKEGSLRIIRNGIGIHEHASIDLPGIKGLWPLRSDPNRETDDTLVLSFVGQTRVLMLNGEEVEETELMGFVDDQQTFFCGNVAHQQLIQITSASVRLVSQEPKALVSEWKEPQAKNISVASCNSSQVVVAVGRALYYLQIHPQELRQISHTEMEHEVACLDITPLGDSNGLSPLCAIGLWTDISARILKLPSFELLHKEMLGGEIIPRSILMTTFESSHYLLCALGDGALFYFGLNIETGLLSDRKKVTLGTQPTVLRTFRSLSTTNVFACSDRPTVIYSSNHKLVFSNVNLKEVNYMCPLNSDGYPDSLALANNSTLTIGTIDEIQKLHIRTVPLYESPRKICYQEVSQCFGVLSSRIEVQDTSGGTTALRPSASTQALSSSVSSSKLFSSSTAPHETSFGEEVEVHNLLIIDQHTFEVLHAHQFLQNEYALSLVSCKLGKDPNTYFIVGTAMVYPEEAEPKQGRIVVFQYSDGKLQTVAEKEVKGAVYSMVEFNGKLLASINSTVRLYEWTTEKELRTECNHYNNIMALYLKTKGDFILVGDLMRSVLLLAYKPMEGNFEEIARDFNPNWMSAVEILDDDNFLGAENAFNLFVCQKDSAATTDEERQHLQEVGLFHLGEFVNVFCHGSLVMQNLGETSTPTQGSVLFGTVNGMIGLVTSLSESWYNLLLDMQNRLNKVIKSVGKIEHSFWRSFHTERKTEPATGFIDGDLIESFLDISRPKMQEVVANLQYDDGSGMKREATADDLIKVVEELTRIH
# Summary of the method: (§1)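 Protein levels read by Western blot of lysates from human PBMCs (1×10^6 cells/mL) treated 24 h. Percent remaining is target band over loading-control band, normalised to DMSO-treated cells; DC50 is the concentration halving DMSO-control band intensity, estimated by curve fit.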
# Wee1 = target: T2, Wee1 (Homo sapiens, UniProt P30291+Q96SW2); assay: Western-blot assay, substrate protein in hPBMCs; format: cell-based; details: hPBMC cells, 24 hours, tested at 50 nM and 500 nM, table does not say which
# T2 construct: endogenous in cells; host or cells: human PBMCs (Milecell Biotechnologies)
# T2 sequence (P30291 whole entry): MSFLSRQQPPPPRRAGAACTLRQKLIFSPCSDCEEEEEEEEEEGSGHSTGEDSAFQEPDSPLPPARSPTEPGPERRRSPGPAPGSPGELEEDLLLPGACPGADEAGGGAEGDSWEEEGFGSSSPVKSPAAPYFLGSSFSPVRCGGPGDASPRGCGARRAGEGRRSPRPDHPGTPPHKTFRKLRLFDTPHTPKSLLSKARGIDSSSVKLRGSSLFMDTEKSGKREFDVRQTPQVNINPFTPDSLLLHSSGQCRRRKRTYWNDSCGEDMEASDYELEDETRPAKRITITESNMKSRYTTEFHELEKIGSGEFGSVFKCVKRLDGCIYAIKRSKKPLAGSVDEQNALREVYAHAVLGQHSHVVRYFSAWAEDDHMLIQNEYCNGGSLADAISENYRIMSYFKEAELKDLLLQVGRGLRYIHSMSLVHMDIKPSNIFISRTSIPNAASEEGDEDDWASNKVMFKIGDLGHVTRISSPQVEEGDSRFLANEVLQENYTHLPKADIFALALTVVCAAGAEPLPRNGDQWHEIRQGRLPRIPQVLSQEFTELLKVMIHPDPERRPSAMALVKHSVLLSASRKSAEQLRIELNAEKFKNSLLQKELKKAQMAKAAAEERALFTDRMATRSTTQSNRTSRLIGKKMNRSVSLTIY
# T2 sequence (Q96SW2 whole entry): as the sequence (Q96SW2 whole entry) above
# T2 sequence (Q16531 whole entry partner): as the sequence (Q16531 whole entry partner) above
# Summary of the method: as §1
# IKZF2 = target: T3, IKZF2 (Homo sapiens, UniProt Q96SW2+Q9UKS7); assay: Western-blot assay, substrate protein in hPBMCs; format: cell-based; details: hPBMC cells, 24 hours, tested at 50 nM and 500 nM, table does not say which
# T3 construct: endogenous in cells; host or cells: human PBMCs (Milecell Biotechnologies)
# Summary of the method: as §1
# GSPT1 = target: T4, GSPT1 (Homo sapiens, UniProt P15170+Q96SW2); assay: Western-blot assay, substrate protein in hPBMCs; format: cell-based; details: hPBMC cells, 24 hours, tested at 50 nM and 500 nM, table does not say which
# T4 construct: endogenous in cells; host or cells: human PBMCs (Milecell Biotechnologies)
# T4 sequence (P15170 whole entry): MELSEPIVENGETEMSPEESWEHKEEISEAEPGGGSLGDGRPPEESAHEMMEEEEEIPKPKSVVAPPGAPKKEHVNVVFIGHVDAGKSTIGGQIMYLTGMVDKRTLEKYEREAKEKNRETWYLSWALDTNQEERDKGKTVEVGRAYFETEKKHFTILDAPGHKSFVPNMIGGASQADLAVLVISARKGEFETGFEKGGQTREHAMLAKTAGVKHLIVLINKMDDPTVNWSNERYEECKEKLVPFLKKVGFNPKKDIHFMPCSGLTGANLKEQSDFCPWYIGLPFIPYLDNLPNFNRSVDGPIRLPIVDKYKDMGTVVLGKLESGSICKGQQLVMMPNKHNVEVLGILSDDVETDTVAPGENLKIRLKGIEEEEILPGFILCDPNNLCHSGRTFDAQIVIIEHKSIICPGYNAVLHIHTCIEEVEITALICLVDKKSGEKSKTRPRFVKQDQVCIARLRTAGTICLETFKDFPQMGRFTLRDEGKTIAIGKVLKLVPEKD
# T4 sequence (Q96SW2 whole entry): as the sequence (Q96SW2 whole entry) above
# T4 sequence (Q16531 whole entry partner): as the sequence (Q16531 whole entry partner) above
# Summary of the method: as §1
# IKZF3 = target: T5, IKZF3 (Homo sapiens, UniProt Q96SW2+Q9UKT9); assay: Western-blot assay, substrate protein in hPBMCs; format: cell-based; details: hPBMC cells, 24 hours, tested at 50 nM and 500 nM, table does not say which
# T5 construct: endogenous in cells; host or cells: human PBMCs (Milecell Biotechnologies)
# T5 sequence (Q9UKT9 whole entry): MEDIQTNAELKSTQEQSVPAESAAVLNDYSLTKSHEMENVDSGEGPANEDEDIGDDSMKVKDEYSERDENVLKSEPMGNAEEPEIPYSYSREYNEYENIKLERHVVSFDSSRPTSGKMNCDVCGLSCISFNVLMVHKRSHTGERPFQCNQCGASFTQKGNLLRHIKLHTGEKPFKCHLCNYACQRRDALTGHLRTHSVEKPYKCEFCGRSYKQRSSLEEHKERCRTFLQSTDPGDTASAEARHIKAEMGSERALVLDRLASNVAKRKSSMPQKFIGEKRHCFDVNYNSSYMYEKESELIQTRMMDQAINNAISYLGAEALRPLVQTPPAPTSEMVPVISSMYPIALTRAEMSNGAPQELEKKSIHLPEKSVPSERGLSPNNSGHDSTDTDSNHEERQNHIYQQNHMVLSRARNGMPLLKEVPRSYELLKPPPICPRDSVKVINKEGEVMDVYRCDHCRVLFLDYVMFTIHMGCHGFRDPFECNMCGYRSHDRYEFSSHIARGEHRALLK
# T5 sequence (Q96SW2 whole entry): as the sequence (Q96SW2 whole entry) above
# T5 sequence (Q16531 whole entry partner): as the sequence (Q16531 whole entry partner) above
# Summary of the method: (§2)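 hPBMCs (1×10^6 cells/mL) exposed 24 h to compound at 50 nM and 500 nM, lysed, and probed by Western blot. Band grayscale normalized to internal control gives % protein remaining versus DMSO; DC50 from concentration-response fit at half DMSO band intensity.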
# IKZF1 = target: T6, IKZF1 (Homo sapiens, UniProt Q13422+Q96SW2); assay: Western-blot assay, substrate protein in hPBMCs; format: cell-based; details: hPBMC cells, 24 hours, tested at 50 nM and 500 nM, table does not say which
# T6 construct: endogenous in cells; host or cells: human PBMCs (Milecell Biotechnologies)
# T6 sequence (Q13422 whole entry): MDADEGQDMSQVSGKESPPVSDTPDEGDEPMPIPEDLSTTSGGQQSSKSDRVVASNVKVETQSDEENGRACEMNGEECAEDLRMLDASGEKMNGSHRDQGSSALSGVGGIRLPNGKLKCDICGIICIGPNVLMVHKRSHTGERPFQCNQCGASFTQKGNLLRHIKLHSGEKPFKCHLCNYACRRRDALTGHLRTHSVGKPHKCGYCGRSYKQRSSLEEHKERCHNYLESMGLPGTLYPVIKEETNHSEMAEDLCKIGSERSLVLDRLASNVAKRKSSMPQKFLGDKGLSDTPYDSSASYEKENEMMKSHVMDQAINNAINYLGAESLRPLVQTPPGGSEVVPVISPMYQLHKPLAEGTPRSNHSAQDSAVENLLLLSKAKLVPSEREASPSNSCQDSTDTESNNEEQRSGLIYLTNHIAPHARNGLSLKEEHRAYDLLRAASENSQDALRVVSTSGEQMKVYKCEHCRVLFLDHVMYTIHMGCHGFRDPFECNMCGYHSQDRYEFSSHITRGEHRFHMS
# T6 sequence (Q96SW2 whole entry): as the sequence (Q96SW2 whole entry) above
# T6 sequence (Q16531 whole entry partner): as the sequence (Q16531 whole entry partner) above
# Summary of the method: as §2
# [1] = target: T7, human Cereblon WT GST-tagged protein (Homo sapiens, UniProt Q96SW2); assay: CRBN-binding affinity, HTRF (CEREBLON BINDING kit); details: displacement of Thalidomide-Re reagent, 3 hours at room temperature
# T7 construct: purchased CISBIO 64BDCRBNPEH
# T7 sequence (Q96SW2 whole entry): as the sequence (Q96SW2 whole entry) above
# Summary of the method: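 HTRF competition format: compound, GST-tagged wild-type human Cereblon, Thalidomide-Re tracer and GST Eu antibody were combined in PROTAC binding buffer. Binding was derived from emission at 620 nm relative to blank and solvent control wells.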
# MV-4-11 = assay: Half inhibitory concentration (IC50) against tumor cells, Cell Counting Kit-8; format: cell-based; details: Homo sapiens, MV4-11, CCK-8, 96 h treatment, read-out: inhibitory activity (IC50, nM) against tumor cells proliferation
# Description: The tumor cells used herein were cultured in a cell culture medium listed in table A at 37° C. in an incubator with 5% CO2.
# After the cells were treated with the compounds of the present disclosure for a period of time, the cell viability detection reagent was added to the culture medium for cell viability assessment according to the instructions provided with the CCK-8 kit. […] The growth inhibition of the compounds of the present disclosure on cells was plotted by Prism Graphpad software, and the IC50 values of the compounds of the present disclosure were calculated therefrom.
compound,measurement,setting,value
"CC1(C)CCC(CN2CC(Oc3ccc4c(c3)CN(C3CCC(=O)NC3=O)C4=O)C2)=C(c2ccc(F)cc2)C1 (centres unmarked) [GT-03459, 3-(5-((1-((4′-fluoro-5,5-dimethyl-3,4,5,6-tetrahydro-[1,1′-biphenyl]-2-yl)methyl)azetidin-3-yl)oxy)-1-oxoisoindolin-2-yl)piperidine-2,6-dione]",substrate protein remaining %,CK1α,A (0%≤ substrate protein remaining % ≤80%)
same,substrate protein remaining %,Wee1,A (0%≤ substrate protein remaining % ≤80%)
same,substrate protein remaining %,IKZF2,A (0%≤ substrate protein remaining % ≤80%)
same,substrate protein remaining %,GSPT1,A (0%≤ substrate protein remaining % ≤80%)
same,substrate protein remaining %,IKZF3,A (0%≤ substrate protein remaining % ≤80%)
same,substrate protein remaining %,IKZF1,A (0%≤ substrate protein remaining % ≤80%)
same,IC50,[1],0.5 to 1 µM
"O=C1CCC(N2Cc3cc(OC4CN(Cc5ccc(-c6ccncc6)nc5)C4)ccc3C2=O)C(=O)N1 (centres unmarked) [GT-06809, 3-(5-((1-([2,4′-bipyridin]-5-ylmethyl)azetidin-3-yl)oxy)-1-oxoisoindolin-2-yl)piperidine-2,6-dione]",substrate protein remaining %,CK1α,A (0%≤ substrate protein remaining % ≤80%)
same,substrate protein remaining %,Wee1,A (0%≤ substrate protein remaining % ≤80%)
same,substrate protein remaining %,IKZF2,A (0%≤ substrate protein remaining % ≤80%)
same,substrate protein remaining %,GSPT1,A (0%≤ substrate protein remaining % ≤80%)
same,substrate protein remaining %,IKZF3,A (0%≤ substrate protein remaining % ≤80%)
same,substrate protein remaining %,IKZF1,A (0%≤ substrate protein remaining % ≤80%)
same,IC50,[1],0.5 to 1 µM
"O=C1CCC(N2Cc3cc(SC4CN(CC5=C(c6ccc(Cl)cc6)CCOC5)C4)ccc3C2=O)C(=O)N1 (centres unmarked) [GT-06351, 3-(5-((1-((4-(4-chlorophenyl)-5,6-dihydro-2H-pyran-3-yl)methyl)azetidin-3-yl)thio)-1-oxoisoindolin-2-yl)piperidine-2,6-dione]",substrate protein remaining %,CK1α,A (0%≤ substrate protein remaining % ≤80%)
same,substrate protein remaining %,IKZF2,A (0%≤ substrate protein remaining % ≤80%)
same,substrate protein remaining %,GSPT1,A (0%≤ substrate protein remaining % ≤80%)
same,substrate protein remaining %,IKZF3,A (0%≤ substrate protein remaining % ≤80%)
same,substrate protein remaining %,IKZF1,A (0%≤ substrate protein remaining % ≤80%)
same,IC50,[1],< 0.5 µM
"CC1(C)CCC(CN2CC(Sc3ccc4c(c3)CN(C3CCC(=O)NC3=O)C4=O)C2)=C(c2ccc(F)cc2)C1 (centres unmarked) [GT-03457, 3-(5-((1-((4′-fluoro-5,5-dimethyl-3,4,5,6-tetrahydro-[1,1′-biphenyl]-2-yl)methyl)azetidin-3-yl)thio)-1-oxoisoindolin-2-yl)piperidine-2,6-dione]",substrate protein remaining %,CK1α,A (0%≤ substrate protein remaining % ≤80%)
same,substrate protein remaining %,IKZF2,A (0%≤ substrate protein remaining % ≤80%)
same,substrate protein remaining %,GSPT1,A (0%≤ substrate protein remaining % ≤80%)
same,substrate protein remaining %,IKZF3,A (0%≤ substrate protein remaining % ≤80%)
same,substrate protein remaining %,IKZF1,A (0%≤ substrate protein remaining % ≤80%)
same,IC50,[1],< 0.5 µM
"O=C1CCC(N2Cc3cc(SC4CN(C(c5ccccn5)c5ccccn5)C4)ccc3C2=O)C(=O)N1 (centres unmarked) [GT-06811, 3-(5-((1-(di(pyridin-2-yl)methyl)azetidin-3-yl)thio)-1-oxoisoindolin-2-yl)piperidine-2,6-dione]",substrate protein remaining %,Wee1,A (0%≤ substrate protein remaining % ≤80%)
same,substrate protein remaining %,IKZF2,A (0%≤ substrate protein remaining % ≤80%)
same,substrate protein remaining %,GSPT1,A (0%≤ substrate protein remaining % ≤80%)
same,substrate protein remaining %,IKZF3,A (0%≤ substrate protein remaining % ≤80%)
same,substrate protein remaining %,IKZF1,A (0%≤ substrate protein remaining % ≤80%)
same,IC50,[1],< 0.5 µM
"O=C1CCC(N2Cc3cc(OC4CN(CC5=C(c6ccc(F)cc6)CCCC5)C4)ccc3C2=O)C(=O)N1 (centres unmarked) [GT-06302, 3-(5-((1-((4′-fluoro-3,4,5,6-tetrahydro-[1,1′-biphenyl]-2-yl)methyl)azetidin-3-yl)oxy)-1-oxoisoindolin-2-yl)piperidine-2,6-dione]",substrate protein remaining %,CK1α,A (0%≤ substrate protein remaining % ≤80%)
same,substrate protein remaining %,Wee1,A (0%≤ substrate protein remaining % ≤80%)
same,substrate protein remaining %,IKZF2,A (0%≤ substrate protein remaining % ≤80%)
same,substrate protein remaining %,GSPT1,A (0%≤ substrate protein remaining % ≤80%)
same,substrate protein remaining %,IKZF3,A (0%≤ substrate protein remaining % ≤80%)
same,substrate protein remaining %,IKZF1,A (0%≤ substrate protein remaining % ≤80%)
same,IC50,[1],0.5 to 1 µM
"CC1(C)CCC(C(=O)N2CCC3(CCC(Sc4ccc5c(c4)CN(C4CCC(=O)NC4=O)C5=O)CC3)CC2)=C(c2ccc(Cl)cc2)C1 (centres unmarked) [GT-07016, 3-(5-((3-(4′-chloro-5,5-dimethyl-3,4,5,6-tetrahydro-[1,1′-biphenyl]-2-carbonyl)-3-azaspiro[5.5]undecan-9-yl)thio)-1-oxoisoindolin-2-yl)piperidine-2,6-dione]",IC50,[1],1 to 1.9 µM
same,IC50,MV-4-11,500 to 1000 nM
"O=C1CCC(N2Cc3cc(SC4CCCN(C(c5ccccc5)c5ccccc5)CC4)ccc3C2=O)C(=O)N1 (centres unmarked) [GT-06645, 3-(5-((1-benzhydrylazepan-4-yl)thio)-1-oxoisoindolin-2-yl)piperidine-2,6-dione]",substrate protein remaining %,GSPT1,A (0%≤ substrate protein remaining % ≤80%)
same,IC50,[1],< 0.5 µM
same,IC50,MV-4-11,500 to 1000 nM
"O=C1CCC(N2Cc3cc(SC4CN(Cc5cnc(-c6ccccc6)cn5)C4)ccc3C2=O)C(=O)N1 (centres unmarked) [GT-06350, 3-(1-oxo-5-((1-((5-phenylpyrazin-2-yl)methyl)azetidin-3-yl)thio)isoindolin-2-yl)piperidine-2,6-dione]",substrate protein remaining %,CK1α,A (0%≤ substrate protein remaining % ≤80%)
same,substrate protein remaining %,IKZF2,A (0%≤ substrate protein remaining % ≤80%)
same,substrate protein remaining %,GSPT1,A (0%≤ substrate protein remaining % ≤80%)
same,substrate protein remaining %,IKZF3,A (0%≤ substrate protein remaining % ≤80%)
same,substrate protein remaining %,IKZF1,A (0%≤ substrate protein remaining % ≤80%)
same,IC50,[1],< 0.5 µM
"O=C1CCC(N2Cc3cc(SC4CN(C(c5cccc(F)c5)c5cccc(F)c5)C4)ccc3C2=O)C(=O)N1 (centres unmarked) [GT-06349, 3-(5-((1-(bis(3-fluorophenyl)methyl)azetidin-3-yl)thio)-1-oxoisoindolin-2-yl)piperidine-2,6-dione]",substrate protein remaining %,CK1α,A (0%≤ substrate protein remaining % ≤80%)
same,substrate protein remaining %,IKZF2,A (0%≤ substrate protein remaining % ≤80%)
same,substrate protein remaining %,GSPT1,A (0%≤ substrate protein remaining % ≤80%)
same,substrate protein remaining %,IKZF3,A (0%≤ substrate protein remaining % ≤80%)
same,substrate protein remaining %,IKZF1,A (0%≤ substrate protein remaining % ≤80%)
same,IC50,[1],0.5 to 1 µM
"CC1(C)CC(c2ccc(Cl)cc2)=C(CN2CC(Sc3ccc4c(c3)CN(C3CCC(=O)NC3=O)C4=O)C2)CO1 (centres unmarked) [GT-06514, 3-(5-((1-((4-(4-chlorophenyl)-6,6-dimethyl-5,6-dihydro-2H-pyran-3-yl)methyl)azetidin-3-yl)thio)-1-oxoisoindolin-2-yl)piperidine-2,6-dione]",substrate protein remaining %,Wee1,A (0%≤ substrate protein remaining % ≤80%)
same,substrate protein remaining %,IKZF2,A (0%≤ substrate protein remaining % ≤80%)
same,substrate protein remaining %,GSPT1,A (0%≤ substrate protein remaining % ≤80%)
same,substrate protein remaining %,IKZF3,A (0%≤ substrate protein remaining % ≤80%)
same,substrate protein remaining %,IKZF1,A (0%≤ substrate protein remaining % ≤80%)
same,IC50,[1],0.5 to 1 µM
"CC1(C)CCC(CN2CCC3(CC2)CC(Oc2ccc4c(c2)CN(C2CCC(=O)NC2=O)C4=O)C3)=C(c2ccc(Cl)cc2)C1 (centres unmarked) [GT-06933, 3-(5-((7-((4′-chloro-5,5-dimethyl-3,4,5,6-tetrahydro-[1,1′-biphenyl]-2-yl)methyl)-7-azaspiro[3.5]nonan-2-yl)oxy)-1-oxoisoindolin-2-yl)piperidine-2,6-dione]",substrate protein remaining %,Wee1,A (0%≤ substrate protein remaining % ≤80%)
same,substrate protein remaining %,IKZF2,A (0%≤ substrate protein remaining % ≤80%)
same,substrate protein remaining %,IKZF3,A (0%≤ substrate protein remaining % ≤80%)
same,substrate protein remaining %,IKZF1,A (0%≤ substrate protein remaining % ≤80%)
same,IC50,[1],1 to 1.9 µM
"O=C1CCC(N2Cc3cc(OC4CCNCC4)ccc3C2=O)C(=O)N1 (centres unmarked) [GT-03612, 3-(1-oxo-5-(piperidin-4-yloxy)isoindolin-2-yl)piperidine-2,6-dione]",substrate protein remaining %,CK1α,A (0%≤ substrate protein remaining % ≤80%)
same,substrate protein remaining %,Wee1,A (0%≤ substrate protein remaining % ≤80%)
same,substrate protein remaining %,IKZF2,A (0%≤ substrate protein remaining % ≤80%)
same,substrate protein remaining %,GSPT1,A (0%≤ substrate protein remaining % ≤80%)
same,substrate protein remaining %,IKZF3,A (0%≤ substrate protein remaining % ≤80%)
same,substrate protein remaining %,IKZF1,A (0%≤ substrate protein remaining % ≤80%)
same,IC50,[1],1 to 1.9 µM
